Data on two molecules can be found in PMC12062019, “Therapeutic effects of medicinal and food-based traditional herbal couples on type 2 diabetes mellitus based on pharmacodynamics and pharmacokinetics” (Frontiers in Pharmacology, 2025).

The subject of one series is T2DM rats. Kind of series: Blood glucose and body weight in high-fat diet/STZ-induced T2DM rat model. In kind it is in vivo. The note with it: gavage once daily, weight first decreased then increased. As to the method: The T2DM rat model was developed by intraperitoneal injection of streptozotocin (STZ). 60 male SD rats were acclimatised and reared for 1 week, then blood glucose and body weight were measured, and the rats were randomly divided into 10 in the normal group and 50 in the modelling group according to blood glucose and body weight. The T2DM rat was fed with high-fat chow for 4 weeks, and at the end of the 4 weeks, the rats were fasted for 12 h without food or water, and were injected with a one-time intraperitoneal injection of 35 mg/kg of 1% STZ solution. The normal group was fed with normal chow, and was given free access to drinking water, and was injected intraperitoneally with the same dose of citrate-sodium citrate buffer as that of the T2DM rat. The blood was collected from the tail vein for fasting blood glucose (FBG) measurement after 72 h. FBG of 16.7 mmol/L was considered successful in T2DM model replication. The T2DM rat model was successfully replicated.
For better drug delivery, we used a rotary evaporator to concentrate the CR-PLR decoction, CR decoction and PLR decotion to crude drug (1 g/mL), respectively. […]

In the next series the test system is gut flora of rats. The experiment in a line: 16s rDNA sequencing of gut flora of rats. The series is classed as in vivo, rat. The note with it: T2DM rats.
On the set-up of series [1]: method as in Wang et al., 2020. To be noted: poor lipid and water solubility; ref Wang et al., 2020; cited from earlier work.
In the next series the test system is HT29 cells. Kind of series: CCK-8 cell viability, HT29. The note with it: HT29, 24 h, concentrations up to 65 μg/mL.
The next series concerns Caco-2 cells. Kind of series: CCK-8 cell viability, Caco-2. To be noted: Caco-2, 24 h, concentrations up to 65 μg/mL.
[2] abbreviates: Genus level, compared to the model group.

Procedure for Caco-2 cells: (§1) HT29 cells were grown in McCoy’s 5A medium containing 10% fetal bovine serum, 1% non-essential amino acids, and 1% penicillin-streptomycin, and other conditions were the same as those for Caco-2 cells culture, with the medium being changed every other day. […] They were incubated at 37°C for 24 h to allow cell adhesion. […] After this, the medium was removed and the cells were co-incubated with 10 μL of CCK-8 solution for 4 h. The absorbance values (OD) were measured at 450 nm using a SpectraMax 190 Enzyme Marker. The blank group consisted of wells that were not inoculated with cells, and the control group included wells containing cells but not exposed to the sample solution. Each group was performed in six replicates. Cell viability was calculated using the following formula: Cell activity%=Experimental Group OD value−Blank Group OD value/Control Group OD value−Blank Group OD value×100%
Procedure for HT29 cells: as §1

As to `CN(C)C(=N)N=C(N)N` [metformin], the “weeks of administration after which body weight increased” value in the series on T2DM rats was 4 weeks. For the same molecule, in the series on gut flora of rats (Family level), the “percentage of Lachnospiraceae flora” value is given as 8.91%, the “percentage of Lactobacillaceae flora” value is on record as 8.88% and the “percentage of Ruminococcaceae flora” value is reported as 9.47%. In addition, in the series with gut flora of rats (Genus level), the “percentage of Ligilactobacillus flora” value worked out at 3.69% and the “percentage of lactobacilli flora” value came out at 4.68%. Also, in the series on gut flora of rats (setting [2]), the “percentage of Akkermansia flora” value is given as “increased” and the “percentage of Ruminococcus flora” value is listed as “increased”. Also, the “number of independent OTUs” value with gut flora of rats (gut flora, Venn plot) is 2051.

On to `O=c1c(-c2ccc(O)cc2)coc2c([C@@H]3O[C@H](CO)[C@@H](O)[C@H](O)[C@H]3O)c(O)ccc12` [PUR, Puerarin], for which the “BCS classification system class” value in series [1] is on record as “class IV”. The relative cell viability entry in the series on HT29 cells and with Caco-2 cells was “above 90%” throughout.
